Measured values as given in patent publication US9808434B2, “Compound for treating cancer and diabetes” (CITY OF HOPE, priority 2011, dated 2017).

What was measured:
PBT-017 = assay: Glioma ATP viability assay, PBT-017; type: cell-based; details: 72 h, Table 2
Experimental: (§1) Cells of each cell line (U251, U87, PBT-017, PBT018, PBT003 and PBT028) were treated with various concentrations (0˜100 μM) of COH-SR4 for 72 hours. Cell viabilities were determined by ATP viability assays. Data were represented as a ratio to vehicle (DMSO) control, and plotted as mean±SEM (n=12) obtained from 2˜3 experiments (FIG. 34A).
as §1, with “(U87, U251,” for “(U251, U87, PBT-017, PBT018,”, “PVT-017)” for “PBT028)”, “2-3” for “2˜3”, “34B).” for “34A).”
(§2) Cells of each cell line were treated with various concentrations (0˜100 μM) of COH-SR4 or various concentrations (0˜1000 μM) of TMZ for 72 hours. Cell viabilities were determined by ATP viability assays. Data were represented as a ratio to untreated cells as control, and plotted as mean±SEM (n=12) obtained from 2˜3 experiments (FIGS. 43A-B).

U251 = assay: Glioma ATP viability assay, U251; type: cell-based; details: Homo sapiens, U-251, 72 h, Table 2
Experimental: as §1
as §1, with “(U87, U251,” for “(U251, U87, PBT-017, PBT018,”, “PVT-017)” for “PBT028)”, “2-3” for “2˜3”, “34B).” for “34A).”
as §2

GSTP = biological target: T1, GSTP (Homo sapiens, UniProt P09211); assay: GSTP activity towards CDNB in the presence of GSR4; type: biochemical; details: 93977 at 0 μM
T1 construct: made in house; host or cells: E. coli BL21 (DE3)
Experimental: Furthermore, GSTP activities towards CDNB were assessed in the presence of various concentration of GSR4. The GSTP activities decreased when the concentration of GSR4 increased (Table 3). Thus, […] was a product inhibitor of GSTP with an estimated Ki of less than 5 μM.

T1 sequence (P09211 whole entry): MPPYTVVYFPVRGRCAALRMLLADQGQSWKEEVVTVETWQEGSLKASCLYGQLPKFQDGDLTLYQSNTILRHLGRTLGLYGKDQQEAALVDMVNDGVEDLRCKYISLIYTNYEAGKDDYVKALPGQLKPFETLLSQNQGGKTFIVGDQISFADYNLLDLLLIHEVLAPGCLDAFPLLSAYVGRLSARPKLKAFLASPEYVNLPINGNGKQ

IC50 (PBT-017)	IC50 (U251)	Compound	GSTP activity towards CDNB (Kcat [s−1]) (GSTP; [GSR4] 5 μM)	GSTP activity towards CDNB (Kcat [s−1]) (GSTP; [GSR4] 10 μM)
13 µM	371 µM	Cn1nnc2c(C(N)=O)ncn2c1=O [TMZ, temozolomide, reference compound]	–	–
–	–	mono-glutationyl-SR4 [GSR4]	36385 s⁻¹	16115 s⁻¹
